Reference: ChEMBL document CHEMBL3217736, “Novel aspects in structureactivity relationships of profiled 1-aza-9-oxafluorenes as inhibitors of Alzheimer's disease-relevant kinases cdk1, cdk5 and gsk3” (Medchemcomm, 2012)
Calls of active or inactive are those of the source. The calls are words filed in the database; no cut-off is given here.

Columns and labels:
[1] = target: Cyclin-dependent kinase 5/CDK5 activator 1 (Homo sapiens) (UniProt Q00535+Q15078); experiment: (§1) Inhibition of human recombinant GST-fused CDK5/P25 expressed in insect Sf9 cells using RBER-CHKtide as substrate assessed as incorporation of 33Pi after 60 mins by microplate scintillation counting analysis
[2] = target: Cyclin-dependent kinase 1/cyclin B1 (Homo sapiens) (UniProt P06493+P14635); experiment: (§2) Inhibition of human recombinant GST-fused CDK1/cyclin B expressed in insect Sf9 cells using RBER-CHKtide as substrate assessed as incorporation of 33Pi after 60 mins by microplate scintillation counting analysis
[3] = target: Glycogen synthase kinase-3 beta (Homo sapiens, UniProt P49841); experiment: Inhibition of human recombinant GST-fused GSK-3beta expressed in insect Sf9 cells using RBER-CHKtide as substrate assessed as incorporation of 33Pi after 60 mins by microplate scintillation counting analysis
[4] = target: Cyclin-dependent kinase 5/CDK5 activator 1 (Homo sapiens, UniProt Q00535); experiment: as §1
[5] = target: Cyclin-dependent kinase 1/cyclin B1 (Homo sapiens, UniProt P06493); experiment: as §2
Cyclin-dependent kinase 1/cyclin B1, sequence (P06493 whole entry): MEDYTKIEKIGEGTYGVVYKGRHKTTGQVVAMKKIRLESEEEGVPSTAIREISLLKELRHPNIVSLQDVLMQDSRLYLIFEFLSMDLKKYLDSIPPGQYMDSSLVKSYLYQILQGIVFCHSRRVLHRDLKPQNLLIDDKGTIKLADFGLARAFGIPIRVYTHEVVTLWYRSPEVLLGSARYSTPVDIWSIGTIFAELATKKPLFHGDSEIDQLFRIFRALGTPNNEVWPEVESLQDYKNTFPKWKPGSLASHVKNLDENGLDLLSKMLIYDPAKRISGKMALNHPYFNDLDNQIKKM
Cyclin-dependent kinase 1/cyclin B1, sequence (P14635 whole entry, further chain): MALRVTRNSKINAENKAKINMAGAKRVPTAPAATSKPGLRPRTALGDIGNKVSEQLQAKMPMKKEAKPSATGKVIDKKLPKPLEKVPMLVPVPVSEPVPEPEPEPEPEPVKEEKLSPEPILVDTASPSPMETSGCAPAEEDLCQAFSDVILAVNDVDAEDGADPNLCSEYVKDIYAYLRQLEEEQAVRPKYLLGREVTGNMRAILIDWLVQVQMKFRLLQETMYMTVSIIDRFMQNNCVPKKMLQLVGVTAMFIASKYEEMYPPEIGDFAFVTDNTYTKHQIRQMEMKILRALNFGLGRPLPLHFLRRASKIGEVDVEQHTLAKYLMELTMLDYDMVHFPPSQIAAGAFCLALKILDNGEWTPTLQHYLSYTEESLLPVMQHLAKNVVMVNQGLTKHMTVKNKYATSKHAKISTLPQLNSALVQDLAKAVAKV

Cyclin-dependent kinase 5/CDK5 activator 1, sequence (Q00535 whole entry): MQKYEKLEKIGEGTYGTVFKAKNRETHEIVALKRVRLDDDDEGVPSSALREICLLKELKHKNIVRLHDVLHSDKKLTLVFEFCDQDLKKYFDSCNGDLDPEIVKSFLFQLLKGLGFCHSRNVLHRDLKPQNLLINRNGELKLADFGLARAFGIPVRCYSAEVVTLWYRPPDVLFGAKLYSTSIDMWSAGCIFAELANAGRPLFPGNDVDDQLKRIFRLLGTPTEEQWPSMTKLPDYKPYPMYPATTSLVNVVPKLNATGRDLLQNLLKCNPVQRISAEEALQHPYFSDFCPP
Cyclin-dependent kinase 5/CDK5 activator 1, sequence (Q15078 whole entry, further chain): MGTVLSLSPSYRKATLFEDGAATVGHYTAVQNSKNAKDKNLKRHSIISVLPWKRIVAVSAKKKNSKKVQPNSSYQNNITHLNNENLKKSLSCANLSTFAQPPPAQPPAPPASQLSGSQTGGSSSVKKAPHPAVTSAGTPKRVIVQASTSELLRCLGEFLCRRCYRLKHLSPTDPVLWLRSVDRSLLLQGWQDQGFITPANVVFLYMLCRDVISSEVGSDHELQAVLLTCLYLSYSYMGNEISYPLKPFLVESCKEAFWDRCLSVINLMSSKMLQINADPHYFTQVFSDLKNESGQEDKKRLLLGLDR
Cyclin-dependent kinase 5/CDK5 activator 1 (Homo sapiens), sequence (Q00535 whole entry, the tested form may be a part): as the sequence (Q00535 whole entry) above
Cyclin-dependent kinase 5/CDK5 activator 1 (Homo sapiens), sequence (Q15078 99-307 partner limits assumed): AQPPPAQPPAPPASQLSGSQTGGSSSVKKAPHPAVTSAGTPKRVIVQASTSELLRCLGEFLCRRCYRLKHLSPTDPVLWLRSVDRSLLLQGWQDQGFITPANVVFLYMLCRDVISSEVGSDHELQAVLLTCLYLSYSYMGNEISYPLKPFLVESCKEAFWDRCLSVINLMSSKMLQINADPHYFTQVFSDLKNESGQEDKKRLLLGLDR
Cyclin-dependent kinase 1/cyclin B1 (Homo sapiens), sequence (P06493 whole entry, looked up, the tested form may be a part): as the sequence (P06493 whole entry) above
Cyclin-dependent kinase 1/cyclin B1 (Homo sapiens), sequence (P14635 whole entry, looked up, the tested form may be a part): as the sequence (P14635 whole entry, further chain) above

| SMILES | inhibition [1] | inhibition [2] | inhibition [3] | Ki [4] [µM] | Ki [5] [µM] | Ki ([3]; sf9) | Ki ([3]; read-out: Ki) [µM] |
| --- | --- | --- | --- | --- | --- | --- | --- |
| Oc1ccc2oc3ncc(OCc4ccccc4)c(-c4ccccc4)c3c2c1 | Active | Active | Active |  |  |  |  |
| COc1cc2oc3ncc(OCc4ccccc4)c(-c4ccccc4)c3c2cc1O |  |  |  | 13.8 | 1.9 | ND(Insoluble) |  |
| COc1ccc2oc3ncc(OCc4ccccc4)c(-c4ccccc4)c3c2c1 |  |  |  | 25.1 |  |  |  |
| CCCNC(=O)c1cnc2oc3ccc(O)cc3c2c1-c1ccccc1 |  |  |  | 14.6 | 1.6 |  | 4.4 |
| NCCNC(=O)c1cnc2oc3ccc(O)cc3c2c1-c1ccccc1 |  |  |  | 12.9 | 2 |  | 4.8 |
| CNC(=O)c1cnc2oc3ccc(O)cc3c2c1-c1ccccc1 |  |  |  | > 1000 | > 1000 |  | 9 |
| CCNC(=O)c1cnc2oc3ccc(O)cc3c2c1-c1ccccc1 |  |  |  | 16.7 | 2.1 | ND(Insoluble) |  |
| COc1cc2oc3ncc(OCc4ccccc4)c(-c4ccccc4)c3c2c(OC)c1O |  |  |  | 13.6 | 0.2 |  | 5.4 |
| COc1cc2c(oc3ncc(OCc4ccccc4)c(-c4ccccc4)c32)c2ccccc12 |  |  |  | > 1000 | > 1000 |  | > 1000 |
